This note sets out measurements from patent US10254456B2, “Polarizing plate composition, polarizing plate protective film, polarizer, polarizing plate, and liquid crystal display device” (FUJIFILM Corporation, priority 2014, dated 2019).

This data set is described as follows: Solubility of additive in water. In kind it is physicochemical. Conditions: 100 ml of pure water at 25° C. The procedure: The amount of the additive dissolving in 100 ml of pure water at 25° C. was measured and evaluated according to the following criteria.

SMILES strings stand for the structures.

Turning to `O=C1NNC(=O)C1c1ccccc1` [2-1], the Solubility in water result was “A (The amount of the additive dissolving in 100 ml of pure water was equal to or greater than 3 g and less than 5 g.)”.
The value for `CC(C)C1C(=O)NNC1=O` [2-3] was “A (The amount of the additive dissolving in 100 ml of pure water was equal to or greater than 3 g and less than 5 g.)”.
`CC(=O)C(Cc1ccccc1S(=O)(=O)[O-])C(=O)c1ccccc1.[Na+]` (stereo not drawn) [3-2]: the Solubility in water entry is listed as “A+ (The amount of the additive dissolving in 100 ml of pure water was equal to or greater than 5 g.)”.
The result for `CC1(C)CC(=O)C(Cc2ccccc2S(=O)(=O)O)C(=O)C1` [3-3] reads “A+ (The amount of the additive dissolving in 100 ml of pure water was equal to or greater than 5 g.)”.
With `O=C1c2ccccc2C(=O)C1Cc1ccccc1S(=O)(=O)O` [3-4], the Solubility in water entry is “A+ (The amount of the additive dissolving in 100 ml of pure water was equal to or greater than 5 g.)”.
The result for `O=C1C(Cc2ccccc2S(=O)(=O)[O-])C(=O)N(c2ccccc2)N1c1ccccc1.[Na+]` [3-6] reads “A+ (The amount of the additive dissolving in 100 ml of pure water was equal to or greater than 5 g.)”; that for `CN1C(=O)C(Cc2ccccc2S(=O)(=O)[O-])C(=O)c2ccccc21.[Na+]` (stereo not drawn) [3-7], “A+ (The amount of the additive dissolving in 100 ml of pure water was equal to or greater than 5 g.)”.
The value for `O=C1Nc2ccccc2NC(=O)C1Cc1ccc(S(=O)(=O)[O-])cc1S(=O)(=O)O.[Na+]` [3-8] was “A+ (The amount of the additive dissolving in 100 ml of pure water was equal to or greater than 5 g.)”; that for `O=C1C(Cc2ccc(S(=O)(=O)[O-])cc2S(=O)(=O)O)C(=O)N2CCCCN12.[Na+]` [3-9] was “A+ (The amount of the additive dissolving in 100 ml of pure water was equal to or greater than 5 g.)”; that for `O=C1CN(c2ccccc2)C(=O)C1Cc1ccccc1S(=O)(=O)O` (stereo not drawn) [3-10] was “A+ (The amount of the additive dissolving in 100 ml of pure water was equal to or greater than 5 g.)”.
For `O=Cc1ccc(CC2C(=O)N(c3ccccc3)N(c3ccc(S(=O)(=O)[O-])cc3)C2=O)cc1.[Na+]` (stereo not drawn) [5-1], the Solubility in water entry was “A+ (The amount of the additive dissolving in 100 ml of pure water was equal to or greater than 5 g.)”.
As for `O=CC1C(=O)N(c2ccccc2)N(c2ccc(S(=O)(=O)[O-])cc2)C1=O.[Na+]` (stereo not drawn) [5-5], the Solubility in water result is reported as “A+ (The amount of the additive dissolving in 100 ml of pure water was equal to or greater than 5 g.)”.
Consider `O=C1NC(=O)N(Cc2ccccc2)C(=O)C1c1ccccc1` (stereo not drawn) [Organic acid 1, reference compound], for which the Solubility in water entry was “C (The amount of the additive dissolving in 100 ml of pure water was less than 1 g.)”.
The value for `Nc1c(F)c(F)c(C(=O)O)c(F)c1F` [Organic acid 2, reference compound] was “A (The amount of the additive dissolving in 100 ml of pure water was equal to or greater than 3 g and less than 5 g.)”; that for `[Cl-].[Cl-].[Zn+2]` [ZnCl2, reference compound] was “A+ (The amount of the additive dissolving in 100 ml of pure water was equal to or greater than 5 g.)”.
